Test results: patent publication US20250262201A1, “COMPOUNDS AND METHODS USEFUL FOR STABILIZING PHENYLALANINE HYDROXYLASE MUTATIONS” (Agios Pharmaceuticals, Inc., priority 2022, published 2025)

Each molecule was assayed against T1, human PAH with the R408W mutation (Homo sapiens, UniProt P00439, R408W) (assay: Cell Based Phenylalanine Flux Assay). Settings: A375 cells expressing human R408W PAH; 24 hrs compound incubation; 13C-Tyrosine by LC-MS; average where tested multiple times; read-out: AC50.
T1 construct: expressed in transfected cells
T1 sequence (P00439 1-452 R408W): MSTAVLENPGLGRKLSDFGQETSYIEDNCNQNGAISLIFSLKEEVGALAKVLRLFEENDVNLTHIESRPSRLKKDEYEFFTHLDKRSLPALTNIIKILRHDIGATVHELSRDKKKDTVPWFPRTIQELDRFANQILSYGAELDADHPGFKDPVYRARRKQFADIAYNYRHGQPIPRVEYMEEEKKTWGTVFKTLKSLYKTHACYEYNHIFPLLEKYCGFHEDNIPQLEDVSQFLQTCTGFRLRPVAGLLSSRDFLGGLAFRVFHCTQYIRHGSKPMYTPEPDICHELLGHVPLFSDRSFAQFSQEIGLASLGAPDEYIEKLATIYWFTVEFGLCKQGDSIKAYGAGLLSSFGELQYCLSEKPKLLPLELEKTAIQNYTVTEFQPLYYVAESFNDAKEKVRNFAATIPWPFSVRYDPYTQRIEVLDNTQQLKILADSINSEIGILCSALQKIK
An AC50 greater than 5000 nM was found for `CC(C)(F)c1ncc(C(=O)N2CCc3[nH]cnc3[C@@H]2c2cn3ccccc3n2)s1` [Example 247, (S)-(2-(2-fluoropropan-2-yl)thiazol-5-yl)(4-(imidazo[1,2-a]pyridin-2-yl)-6,7-dihydro-1H-imidazo[4,5-c]pyridin-5(4H)-yl)methanone] in this work. An AC50 of 500 to 1000 nM was found for `CC(C)(F)c1ncc(C(=O)N2CCc3[nH]cnc3[C@H]2c2cn3ccccc3n2)s1` [Example 248, (R)-(2-(2-fluoropropan-2-yl)thiazol-5-yl)(4-(imidazo[1,2-a]pyridin-2-yl)-6,7-dihydro-1H-imidazo[4,5-c]pyridin-5(4H)-yl)methanone] in this work. An AC50 of 500 to 1000 nM was found for `CC(C)(C)c1ncc(C(=O)N2CCc3[nH]cnc3[C@H]2c2cn3ccccc3n2)o1` [Example 250, (R)-(2-(tert-butyl)oxazol-5-yl)(4-(imidazo[1,2-a]pyridin-2-yl)-6,7-dihydro-1H-imidazo[4,5-c]pyridin-5(4H)-yl)methanone] in this work. An AC50 of 1000 to 5000 nM was found for `O=C(c1cnc(C2(F)CCC2)s1)N1CCc2[nH]cnc2[C@H]1c1cn2ccccc2n1` [Example 251, (R)-(2-(1-fluorocyclobutyl)thiazol-5-yl)(4-(imidazo[1,2-a]pyridin-2-yl)-6,7-dihydro-1H-imidazo[4,5-c]pyridin-5(4H)-yl)methanone] in this work. An AC50 greater than 5000 nM was found for `O=C(c1cnc(C2(F)CCC2)s1)N1CCc2[nH]cnc2[C@@H]1c1cn2ccccc2n1` [Example 252, (S)-(2-(1-fluorocyclobutyl)thiazol-5-yl)(4-(imidazo[1,2-a]pyridin-2-yl)-6,7-dihydro-1H-imidazo[4,5-c]pyridin-5(4H)-yl)methanone] in this work. An AC50 of 1000 to 5000 nM was found for `O=C(CC1CC(F)C1)N1CCc2[nH]cnc2[C@@H]1c1cn2ccccc2n1` (stereo partly drawn) [Example 253, (S)-2-(3-fluorocyclobutyl)-1-(4-(imidazo[1,2-a]pyridin-2-yl)-6,7-dihydro-1H-imidazo[4,5-c]pyridin-5(4H)-yl)ethanone] in this work. An AC50 of less than 500 nM was found for `O=C(CC1CC(F)C1)N1CCc2[nH]cnc2[C@H]1c1cn2ccccc2n1` (stereo partly drawn) [Example 254, (R)-2-(3-fluorocyclobutyl)-1-(4-(imidazo[1,2-a]pyridin-2-yl)-6,7-dihydro-1H-imidazo[4,5-c]pyridin-5(4H)-yl)ethanone] in this work. An AC50 of less than 500 nM was found for `O=C(c1oc(-c2ccccn2)nc1C(F)(F)F)N1CCc2[nH]cnc2[C@H]1c1cn2ccccc2n1` [Example 256, (R)-(4-(imidazo[1,2-a]pyridin-2-yl)-6,7-dihydro-1H-imidazo[4,5-c]pyridin-5(4H)-yl)(2-(pyridin-2-yl)-4-(trifluoromethyl)oxazol-5-yl)methanone] in this work. An AC50 of less than 500 nM was found for `O=C(CCc1nccs1)N1CCc2[nH]cnc2[C@H]1c1ncc2ccccc2n1` [Example 273, (S)-1-(4-(quinazolin-2-yl)-6,7-dihydro-1H-imidazo[4,5-c]pyridin-5(4H)-yl)-3-(thiazol-2-yl)propan-1-one] in this work. An AC50 greater than 5000 nM was found for `O=C(CCc1nccs1)N1CCc2[nH]cnc2[C@@H]1c1ncc2ccccc2n1` [Example 274, (R)-1-(4-(quinazolin-2-yl)-6,7-dihydro-1H-imidazo[4,5-c]pyridin-5(4H)-yl)-3-(thiazol-2-yl)propan-1-one] in this work. An AC50 of less than 500 nM was found for `Cn1nc(C(F)F)nc1C(=O)N1CCc2[nH]cnc2[C@H]1c1ncc2ccccc2n1` [Example 276, (S)-(3-(difluoromethyl)-1-methyl-1H-1,2,4-triazol-5-yl)(4-(quinazolin-2-yl)-6,7-dihydro-1H-imidazo[4,5-c]pyridin-5(4H)-yl)methanone] in this work. An AC50 of less than 500 nM was found for `O=C(c1oc(-c2ccc(C(F)(F)F)cn2)nc1C(F)F)N1CCc2[nH]cnc2[C@H]1c1ncc2ccccc2n1` [Example 278, (S)-(4-(difluoromethyl)-2-(5-(trifluoromethyl)pyridin-2-yl)oxazol-5-yl)(4-(quinazolin-2-yl)-6,7-dihydro-1H-imidazo[4,5-c]pyridin-5(4H)-yl)methanone] in this work.
